In PMC9841531, “Indole Derivatives as New Structural Class of Potent and Antiproliferative Inhibitors of Monocarboxylate Transporter 1 (MCT1; SLC16A1)” (Journal of Medicinal Chemistry, 2022):

Assays:
MCT1 = target: T1, MCT1 (Homo sapiens, UniProt P53985); experiment: functional 3-BP cell viability assay (MCT1 transport inhibition); assay type: cell-based; conditions: MCT1-expressing A-549 cells, 50 μM 3-BP, 72 h; read-out: MCT1 transport inhibition IC50 ± SEM
T1 construct: MCT1-expressing A-549 cells[14],[15] were exposed to the MCT1 substrate 3-BP, which becomes influxed by MCT1; endogenous in cells; host or cells: A-549 lung cancer cells (from NCCS, Pune)
T1 sequence (P53985 1-500): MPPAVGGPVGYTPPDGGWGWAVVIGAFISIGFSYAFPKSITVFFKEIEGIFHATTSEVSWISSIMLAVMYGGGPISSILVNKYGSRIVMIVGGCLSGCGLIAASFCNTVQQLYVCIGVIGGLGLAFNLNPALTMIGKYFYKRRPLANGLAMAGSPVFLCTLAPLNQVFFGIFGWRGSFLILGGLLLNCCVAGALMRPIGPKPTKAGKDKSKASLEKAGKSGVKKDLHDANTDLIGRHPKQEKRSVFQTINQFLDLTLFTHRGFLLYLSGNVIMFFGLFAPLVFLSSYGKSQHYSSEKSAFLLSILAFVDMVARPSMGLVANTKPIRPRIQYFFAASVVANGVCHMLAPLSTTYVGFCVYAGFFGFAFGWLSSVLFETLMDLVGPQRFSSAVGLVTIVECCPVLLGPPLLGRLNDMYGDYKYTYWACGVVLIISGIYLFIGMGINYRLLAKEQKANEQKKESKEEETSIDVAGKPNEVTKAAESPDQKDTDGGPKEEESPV
T1 sequence (P35613 140-385 partner limits assumed): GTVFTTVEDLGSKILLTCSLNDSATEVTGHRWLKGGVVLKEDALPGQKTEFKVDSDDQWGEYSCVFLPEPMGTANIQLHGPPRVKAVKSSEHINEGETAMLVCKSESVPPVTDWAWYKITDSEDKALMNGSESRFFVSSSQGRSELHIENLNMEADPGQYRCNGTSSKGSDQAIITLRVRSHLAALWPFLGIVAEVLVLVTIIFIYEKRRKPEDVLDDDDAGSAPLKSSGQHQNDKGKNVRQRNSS
Experimental: (§1) The inhibitory activity of indole derivatives against MCT1 was determined by applying a functional 3-bromopyruvate (3-BP) cell viability assay, as described in the literature[20],[39] with minor modifications. In short, MCT1-expressing A-549 cells[14],[15] were exposed to the MCT1 substrate 3-BP, which becomes influxed by MCT1. 3-BP is toxic, leading to decreased cell viability. Functional inhibition of MCT1 results in reduced intracellular 3-BP levels and, thus, enhanced cell viability compared to no inhibition. […] Table 1 provides the half-maximal inhibition concentration (IC50) values of compounds 17–32.
(§2) A functional 3-BP cytotoxicity assay was conducted as described in the literature[20],[39] with minor modifications. Dilution series of compounds 17–32 between 1 nM and 1 μM were prepared in DPBS (Cell Clone, Genetix Biotech Asia, New Delhi India), and 10 μL of each concentration was pipetted into a colorless flat-bottom 96-well microplate (SPL Life Sciences, Gyeonggi-do, Republic of Korea). One hundred and eighty microliters of a cell suspension (5000 cells/well) of A-549 cells was added, and subsequently, 10 μL of 3-BP was added at a concentration of 1 mM (final concentration per well: 50 μM). The plate was kept for 72 h at 37 °C under a 5% CO2-humidified atmosphere. Cell viability was determined as described before[43] by adding 20 μL of a 5 mg/mL solution of MTT to each well and further incubation for 1 h. Eventually, the supernatant was removed and 100 μL of DMSO was added to each well. The absorbance was spectrophotometrically determined at 570 nm using a SpectraMax iD3 multi-mode microplate reader (Molecular Devices, San Jose, CA) with a background correction (690 nm). The determined absorbance values were correlated to the logarithmic concentrations of compounds 17–32, and IC50 values were calculated applying nonlinear regression using GraphPad Prism (version 8.4.0., San Diego, CA).

A-549 cancer cells = experiment: MTT-based cell viability assay, A-549; conditions: Homo sapiens, A549, 72 h, read-out: A-549 cancer cell toxicity GI50 ± SEM
Source text: (§3) MCT1-expressing cells have an extraordinary energy demand and rely on pyruvate metabolism, through either lactate conversion or pyruvate consumption. Inhibition of MCT1 blocks lactate and pyruvate influx into cancer cells, which prevents their processing in the TCA cycle. Over time, the viability of cells exposed to an MCT1 inhibitor is impaired due to pyruvate deprivation, which is compensated by upregulating glucose metabolism—leading to an overconsumption of glucose. To confirm the antiproliferative nature of the indole derivatives, we investigated the compounds toward the MCT1-expressing cell lines A-549[14],[15] and MCF-7.[16] Cancer cell viability was assessed via a 3-(4,5-dimethylthiazol-2-yl)-2,5-diphenyltetrazolium bromide (MTT) assay, as reported earlier.[43]
(§4) To determine the growth inhibitory potential of compounds 17–32, […] of each compound either at concentrations between 1 and 100 μM (A-549 or MCF-7) or at 10 and 50 μM (NIH/3T3) was pipetted into colorless flat-bottom 96-well microplates. Thereafter, 180 μL of a cell suspension (5000 cells/well) of either A-549, MCF-7, or NIH/3T3 cells was added and subsequently kept for 72 h at 37 °C under a 5% CO2-humidified atmosphere. The cell viability as well as the GI50 values were determined as described above.[43]

MCF-7 cancer cells = experiment: MTT-based cell viability assay, MCF-7; conditions: Homo sapiens, MCF7, 72 h, read-out: MCF-7 cancer cell toxicity GI50 ± SEM
Source text: as §3, §4

ABCC1 = ABCC1 (Homo sapiens, UniProt P33527); experiment: daunorubicin assay, ABCC1-expressing H69AR cells; conditions: screening at 10 μM, inhibitor if 20% (+SEM) reached
Sequence of ABCC1 (P33527 whole entry): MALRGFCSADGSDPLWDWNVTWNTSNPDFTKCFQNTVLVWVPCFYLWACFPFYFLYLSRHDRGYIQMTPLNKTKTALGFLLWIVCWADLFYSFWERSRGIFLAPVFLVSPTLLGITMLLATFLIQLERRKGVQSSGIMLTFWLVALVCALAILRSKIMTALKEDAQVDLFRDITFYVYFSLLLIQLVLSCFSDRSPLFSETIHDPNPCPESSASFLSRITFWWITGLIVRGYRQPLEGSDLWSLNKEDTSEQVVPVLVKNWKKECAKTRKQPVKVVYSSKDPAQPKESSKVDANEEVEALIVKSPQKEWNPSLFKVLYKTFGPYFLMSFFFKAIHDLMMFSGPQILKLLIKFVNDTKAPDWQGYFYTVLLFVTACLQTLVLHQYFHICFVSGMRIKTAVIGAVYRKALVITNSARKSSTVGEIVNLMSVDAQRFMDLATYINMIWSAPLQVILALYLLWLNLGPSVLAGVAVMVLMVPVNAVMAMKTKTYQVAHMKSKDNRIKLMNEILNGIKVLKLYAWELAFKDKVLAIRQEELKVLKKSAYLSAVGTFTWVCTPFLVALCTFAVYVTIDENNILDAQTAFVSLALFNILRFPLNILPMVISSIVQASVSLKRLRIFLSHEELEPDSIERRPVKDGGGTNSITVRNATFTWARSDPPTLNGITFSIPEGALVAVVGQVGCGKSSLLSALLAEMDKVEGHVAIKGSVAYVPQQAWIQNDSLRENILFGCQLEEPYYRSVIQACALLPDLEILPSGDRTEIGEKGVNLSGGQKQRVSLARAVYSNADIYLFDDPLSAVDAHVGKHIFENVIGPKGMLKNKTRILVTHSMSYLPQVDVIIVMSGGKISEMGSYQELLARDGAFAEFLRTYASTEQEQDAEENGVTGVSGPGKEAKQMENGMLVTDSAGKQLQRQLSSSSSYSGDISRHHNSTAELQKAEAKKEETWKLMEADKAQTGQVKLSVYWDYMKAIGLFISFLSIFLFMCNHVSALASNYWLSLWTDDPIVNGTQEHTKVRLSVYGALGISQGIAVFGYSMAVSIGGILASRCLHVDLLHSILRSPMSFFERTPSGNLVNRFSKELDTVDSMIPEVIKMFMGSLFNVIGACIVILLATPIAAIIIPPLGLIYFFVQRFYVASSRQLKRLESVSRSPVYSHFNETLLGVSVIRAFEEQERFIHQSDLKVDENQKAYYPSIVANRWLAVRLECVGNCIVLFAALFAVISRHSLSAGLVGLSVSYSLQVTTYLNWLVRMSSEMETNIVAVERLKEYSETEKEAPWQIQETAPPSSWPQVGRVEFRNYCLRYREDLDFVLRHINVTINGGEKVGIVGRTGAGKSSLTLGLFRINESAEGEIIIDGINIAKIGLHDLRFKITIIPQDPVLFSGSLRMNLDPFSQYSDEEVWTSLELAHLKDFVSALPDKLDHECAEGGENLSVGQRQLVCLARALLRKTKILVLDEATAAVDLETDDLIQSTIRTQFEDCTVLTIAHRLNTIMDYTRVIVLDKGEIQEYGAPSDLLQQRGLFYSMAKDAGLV
Source text: (§5) To provide a detailed picture of the pharmacological profile of the indole derivatives, we investigated their modulatory nature on the most prominent ABC transporters ABCB1 (P-glycoprotein, P-gp), ABCC1, (multidrug resistance-associated protein 1, MRP1), and ABCG2 (breast cancer resistance protein, BCRP). Here, we conducted calcein AM (ABCB1),[2],[52]−[59] daunorubicin (ABCC1),[52],[58]−[60] and pheophorbide A (ABCG2)[2],[52]−[60] assays using ABCB1-expressing A2780/ADR, ABCC1-expressing H69AR, and ABCG2-expressing MDCK II BCRP cells, respectively.
(§6) The calcein AM (ABCB1),[2],[52]−[59] daunorubicin (ABCB1[52],[60] and ABCC1[52],[58]−[60]), and pheophorbide A (ABCG2)[2],[52]−[60] assays were conducted as reported earlier. […] The data was processed using GraphPad Prism version 8.4.0, and IC50 values were determined, applying three- or four-parameter logistic equations, whatever was statistically preferred.

ABCB1 = ABCB1 (Homo sapiens, UniProt P08183); experiment: calcein AM assay, ABCB1-expressing A2780/ADR cells; conditions: screening at 10 μM, inhibitor if 20% (+SEM) reached
Sequence of ABCB1 (P08183 whole entry): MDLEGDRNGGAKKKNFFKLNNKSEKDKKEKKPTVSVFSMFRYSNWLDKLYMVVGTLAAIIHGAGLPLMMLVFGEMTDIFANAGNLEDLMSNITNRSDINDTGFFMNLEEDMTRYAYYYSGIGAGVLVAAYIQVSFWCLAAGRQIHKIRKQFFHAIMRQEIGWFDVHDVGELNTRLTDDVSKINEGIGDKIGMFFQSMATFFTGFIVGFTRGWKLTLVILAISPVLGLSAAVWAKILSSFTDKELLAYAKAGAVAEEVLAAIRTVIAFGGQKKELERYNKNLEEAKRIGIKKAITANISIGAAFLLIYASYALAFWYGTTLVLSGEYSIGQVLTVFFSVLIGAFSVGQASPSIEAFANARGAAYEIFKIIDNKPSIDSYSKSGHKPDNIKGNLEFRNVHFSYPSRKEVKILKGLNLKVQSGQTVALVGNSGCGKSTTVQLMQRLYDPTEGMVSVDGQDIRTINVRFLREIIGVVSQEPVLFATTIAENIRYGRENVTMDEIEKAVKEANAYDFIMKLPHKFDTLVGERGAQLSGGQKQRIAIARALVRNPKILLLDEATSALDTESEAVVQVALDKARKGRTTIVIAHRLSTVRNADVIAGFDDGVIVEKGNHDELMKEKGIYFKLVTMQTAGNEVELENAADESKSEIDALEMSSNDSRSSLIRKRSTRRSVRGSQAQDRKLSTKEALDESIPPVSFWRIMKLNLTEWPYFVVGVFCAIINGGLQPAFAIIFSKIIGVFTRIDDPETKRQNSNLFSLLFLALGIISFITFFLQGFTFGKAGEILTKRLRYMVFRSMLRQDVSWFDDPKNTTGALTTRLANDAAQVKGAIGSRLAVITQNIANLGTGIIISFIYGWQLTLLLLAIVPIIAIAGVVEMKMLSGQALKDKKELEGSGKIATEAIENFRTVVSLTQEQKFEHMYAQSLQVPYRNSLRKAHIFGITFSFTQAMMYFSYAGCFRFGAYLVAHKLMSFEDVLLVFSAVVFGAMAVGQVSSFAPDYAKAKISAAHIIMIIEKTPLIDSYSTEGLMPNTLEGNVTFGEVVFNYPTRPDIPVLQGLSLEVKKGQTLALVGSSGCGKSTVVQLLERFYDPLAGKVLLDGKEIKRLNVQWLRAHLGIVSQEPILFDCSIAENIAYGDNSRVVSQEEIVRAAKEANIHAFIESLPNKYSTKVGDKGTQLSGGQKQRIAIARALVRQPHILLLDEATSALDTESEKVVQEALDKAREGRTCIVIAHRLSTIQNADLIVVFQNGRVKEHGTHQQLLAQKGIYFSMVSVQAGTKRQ
Source text: as §5, §6

A-549 cells = experiment: 3-BP toxicity against A-549 cells (MTT); assay type: cell-based
Experimental: as §1, §2

Compound	IC50 (MCT1)	GI50 (A-549 cancer cells)	GI50 (MCF-7 cancer cells)	ABCC1 inhibition (ABCC1)	ABCB1 inhibition (ABCB1)	GI90 of 3-BP (A-549 cells; A-549 cells)	GI50 (A-549 cells; Homo sapiens, A549, read-out: half-maximal growth inhibition (GI50) of 3-BP, A-549 cells)	inhibition at 50 µM (A-549 cells; Homo sapiens, A549, 50 μM 3-BP, read-out: inhibition of A-549 cell growth)
COC(=O)/C(C#N)=C/c1cn(CC(=O)Nc2ccc(Cl)cc2)c2ccccc12 [Compound 26, Methyl-3-(1-(2-((4-chlorophenyl)amino)-2-oxoethyl)-1H-indol-3-yl)-2-cyanoacrylate]	0.196 ± 0.005 µM	21 ± 0.4 µM	10.7 ± 0.4 µM	X (Compounds were considered as inhibitors if they reached 20% (+SEM) inhibition compared to the reference inhibitors 33–35; X = fulfilled)	X (Compounds were considered as inhibitors if they reached 20% (+SEM) inhibition compared to the reference inhibitors 33–35; X = fulfilled)			
COC(=O)/C(C#N)=C/c1cn(CC(=O)Nc2ccccc2)c2ccccc12 [Compound 17, Methyl-2-cyano-3-(1-(2-oxo-2-(phenylamino)ethyl)-1H-indol-3-yl) Acrylate]	0.314 ± 0.047 µM	29.2 ± 0.2 µM	15.4 ± 0.3 µM		X (Compounds were considered as inhibitors if they reached 20% (+SEM) inhibition compared to the reference inhibitors 33–35; X = fulfilled)			
COC(=O)/C(C#N)=C/c1cn(CC(=O)Nc2ccc(F)cc2)c2ccccc12 [Compound 25, Methyl-2-cyano-3-(1-(2-((4-fluorophenyl)amino)-2-oxoethyl)-1H-indol-3-yl) Acrylate]	0.793 ± 0.138 µM	22 ± 0.6 µM	15.1 ± 0.3 µM	X (Compounds were considered as inhibitors if they reached 20% (+SEM) inhibition compared to the reference inhibitors 33–35; X = fulfilled)	X (Compounds were considered as inhibitors if they reached 20% (+SEM) inhibition compared to the reference inhibitors 33–35; X = fulfilled)			
COC(=O)/C(C#N)=C/c1cn(CC(=O)Nc2ccc3ccccc3c2)c2ccccc12 [Compound 19, Methyl-2-cyano-3-(1-(2-(naphthalen-2-ylamino)-2-oxoethyl)-1H-indol-3-yl) Acrylate]	0.109 ± 0.003 µM	26.9 ± 0.3 µM	15.5 ± 1.3 µM		X (Compounds were considered as inhibitors if they reached 20% (+SEM) inhibition compared to the reference inhibitors 33–35; X = fulfilled)			
COC(=O)/C(C#N)=C/c1cn(CC(=O)Nc2c(Cl)cccc2Cl)c2ccccc12 [Compound 27, Methyl-2-cyano-3-(1-(2-((2,6-dichlorophenyl)amino)-2-oxoethyl)-1H-indol-3-yl) Acrylate]	0.109 ± 0.002 µM	25 ± 0.5 µM	17.3 ± 0.6 µM	X (Compounds were considered as inhibitors if they reached 20% (+SEM) inhibition compared to the reference inhibitors 33–35; X = fulfilled)	X (Compounds were considered as inhibitors if they reached 20% (+SEM) inhibition compared to the reference inhibitors 33–35; X = fulfilled)			
COC(=O)/C(C#N)=C/c1cn(CC(=O)Nc2ccccn2)c2ccccc12 [Compound 29, Methyl-2-cyano-3-(1-(2-oxo-2-(pyridin-2-ylamino)ethyl)-1H-indol-3-yl) Acrylate]	0.198 ± 0.004 µM	17.1 ± 0.4 µM	4.32 ± 0.14 µM					
COC(=O)/C(C#N)=C/c1cn(CC(=O)Nc2ccc(C)cc2)c2ccccc12 [Compound 21, Methyl-2-cyano-3-(1-(2-oxo-2-(p-tolylamino)ethyl)-1H-indol-3-yl) Acrylate]	0.112 ± 0.01 µM	14 ± 0.5 µM	13.9 ± 0.1 µM	X (Compounds were considered as inhibitors if they reached 20% (+SEM) inhibition compared to the reference inhibitors 33–35; X = fulfilled)	X (Compounds were considered as inhibitors if they reached 20% (+SEM) inhibition compared to the reference inhibitors 33–35; X = fulfilled)			
COC(=O)/C(C#N)=C/c1cn(CC(=O)Nc2ccc(Br)cc2)c2ccccc12 [Compound 28, Methyl-3-(1-(2-((4-bromophenyl)amino)-2-oxoethyl)-1H-indol-3-yl)-2-cyanoacrylate]	0.287 ± 0.047 µM	19.2 ± 0.2 µM	9.99 ± 0.46 µM		X (Compounds were considered as inhibitors if they reached 20% (+SEM) inhibition compared to the reference inhibitors 33–35; X = fulfilled)			
O=C(O)C(=O)CBr [3-BP, 3-bromopyruvate]						49.8 ± 0.6 µM	25 ± 0.4 µM	≥ 90%
COC(=O)/C(C#N)=C/c1cn(CC(=O)Nc2cccc3ccccc23)c2ccccc12 [Compound 18, Methyl-2-cyano-3-(1-(2-(naphthalen-1-ylamino)-2-oxoethyl)-1H-indol-3-yl) Acrylate]	0.193 ± 0.01 µM	21.5 ± 0.4 µM	15.4 ± 0.5 µM		X (Compounds were considered as inhibitors if they reached 20% (+SEM) inhibition compared to the reference inhibitors 33–35; X = fulfilled)			
COC(=O)/C(C#N)=C/c1cn(CC(=O)Nc2ccccc2C)c2ccccc12 [Compound 20, Methyl-2-cyano-3-(1-(2-oxo-2-(o-tolylamino)ethyl)-1H-indol-3-yl) Acrylate]	0.105 ± 0.006 µM	28.3 ± 0.1 µM	15.3 µM	X (Compounds were considered as inhibitors if they reached 20% (+SEM) inhibition compared to the reference inhibitors 33–35; X = fulfilled)	X (Compounds were considered as inhibitors if they reached 20% (+SEM) inhibition compared to the reference inhibitors 33–35; X = fulfilled)			
COC(=O)/C(C#N)=C/c1cn(CC(=O)Nc2cccnc2)c2ccccc12 [Compound 32, Methyl-2-cyano-3-(1-(2-oxo-2-(pyridin-3-ylamino)ethyl)-1H-indol-3-yl) Acrylate]	0.109 ± 0.003 µM	19.2 ± 0.4 µM	11.1 ± 0.2 µM	X (Compounds were considered as inhibitors if they reached 20% (+SEM) inhibition compared to the reference inhibitors 33–35; X = fulfilled)	X (Compounds were considered as inhibitors if they reached 20% (+SEM) inhibition compared to the reference inhibitors 33–35; X = fulfilled)			
